Reference: patent US4672117A, “Antipsychotic gamma-carbolines” (American Home Products Corporation, priority 1985, dated 1987)

Key:
male CD rats [1] = assay: conditioned avoidance, shelf-jump response (S-J); format: in vivo; settings: rat
Text: (§1) The antipsychotic properties of the compounds of this invention were established by standard pharmacologically accepted procedures involving two conditioned avoidance studies in which trained male CD rats (Charles River), 400-450 gm body weight are exposed to a fifteen second warning tone (conditioned stimulus) continued for an additional fifteen seconds accompanied by electric shock. The rat can avoid the electric shock by depression of a response lever (lever-response) or in a different study by jumping to an exposed shelf (shelf-jump response). In either test situation, a response during the initial warning tone is considered an avoidance response while a response during shock delivery is considered an escape response. The avoidance response is determined and expressed as a percentage of total trials from an appropriate number of trials and a 50% block in avoidance responding (AB50) is obtained from a dose-effect regression line. All the data is based upon (mg/kg) dosing of the animals. The shelf-jump response test procedure follows that of Herman et al., Comm. in Psychopharm., 3, pp. 165-171 (1979).
(§2) The following examples illustrate the production of compounds of this invention. After each example the pharmacological evaluation for the compound produced is presented. The conditioned avoidance tests are reported as relative activity for the shelf-jump (S-J) at the intraperitoneal (i.p.) dose administered in mg/kg and the AB50 is presented for the lever-response (L-R) test at the oral (p.o.) dose in mg/kg. The inhibition constant is reported for limbic D-2 binding expressed in nM concentration.

male CD rats [2] = assay: conditioned avoidance, lever-response (L-R); format: in vivo; settings: rat; for L-R relative activity: lever-response conditioned avoidance; for ED50: po, lever-response, p.o., interval in brackets, read-out: L-R AB50 (50% block in avoidance responding)
Text: as §1, §2

[3] = molecular target: T1, limbic D-2 dopamine receptor (Rattus norvegicus, UniProt P61169); assay: limbic D-2 binding, 3H-spiroperidol, homogenized limbic brain tissue; settings: 95% confidence interval in brackets, read-out: Limbic D-2 inhibition constant (Ki)
T1 construct: from tissue
Procedure: Binding in the presence of the test compound is expressed as a percent of specific binding (total binding less binding in the presence of 1 μM (+)butaclamol). An inhibition constant (Ki) is calculated for each test compound to categorize its limbic D-2 binding potential. The larger the number, the less potential for dopamine receptor binding and attendant side effects from administration of the antipsychotic agent.
as §2

[4] = antagonism of apomorphine-induced stereotyped behavior; settings: mouse, in vivo, ip, CF-1 mice, 10 mg/kg apomorphine s.c. 30 min later; measure of extrapyramidal side effects; read-out: ED50 for inhibition of apomorphine-induced stereotyped behavior

T1 sequence (P61169 whole entry): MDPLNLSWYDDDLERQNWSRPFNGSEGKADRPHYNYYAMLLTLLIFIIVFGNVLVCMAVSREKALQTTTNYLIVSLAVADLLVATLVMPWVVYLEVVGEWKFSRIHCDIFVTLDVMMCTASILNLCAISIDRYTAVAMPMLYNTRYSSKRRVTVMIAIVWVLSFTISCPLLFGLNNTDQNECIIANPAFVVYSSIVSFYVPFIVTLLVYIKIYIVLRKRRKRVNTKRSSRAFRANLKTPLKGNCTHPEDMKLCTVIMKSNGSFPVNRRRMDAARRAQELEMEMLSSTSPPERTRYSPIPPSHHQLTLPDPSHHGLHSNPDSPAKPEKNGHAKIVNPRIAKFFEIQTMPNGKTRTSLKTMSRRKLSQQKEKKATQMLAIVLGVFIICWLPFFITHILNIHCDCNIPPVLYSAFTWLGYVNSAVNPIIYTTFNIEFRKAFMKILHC

SMILES | Ki [3] [nM] | S-J relative activity (male CD rats [1]; 40 mg/kg i.p.) | other results
Fc1ccc(-n2c3c(c4cc(F)ccc42)CN(CCc2ccccn2)CC3)cc1 [Example 1, 8-Fluoro-5-(4-fluorophenyl)-2,3,4,5-tetrahydro-2-[2-(2-pyridinyl)ethyl]-1H-pyrido[4,3-b]indole] | 7 | – | S-J relative activity (male CD rats [1]; 20 mg/kg i.p.): Active; L-R relative activity (male CD rats [2]; 20 mg/kg p.o.): Active; ED50 (male CD rats [2]): 6.3 mg/kg
c1ccc(C2CN(CCCCc3ccncc3)Cc3c2[nH]c2ccccc32)cc1 (stereo not drawn) [Example 2, 2,3,4,5-Tetrahydro-4-phenyl-2-[4-(4-pyridinyl)butyl]-1H-pyrido[4,3-b]indole] | 404 | – | S-J relative activity (male CD rats [1]; 20 mg/kg i.p.): Very weak
c1ccc(C2CN(CCCc3cccnc3)Cc3c2[nH]c2ccccc32)cc1 (stereo not drawn) [Example 3, 2,3,4,5-Tetrahydro-4-phenyl-2-[3-(3-pyridinyl)propyl]-1H-pyrido[4,3-b]indole] | 140 | – | –
c1ccc(C2CN(CCc3ccccn3)Cc3c2[nH]c2ccccc32)cc1 (stereo not drawn) [Example 4, 2,3,4,5-Tetrahydro-4-phenyl-2-[2-(2-pyridinyl)ethyl]-1H-pyrido[4,3-b]indole] | 600 | – | –
Fc1ccc(-n2c3c(c4cc(F)ccc42)CN(CCc2ccc4ccccc4n2)CC3)cc1 [Example 5, 8-Fluoro-5-(4-fluorophenyl)-2,3,4,5-tetrahydro-2-[2-(2-quinolinyl)ethyl]-1H-pyrido[4,3-b]indole] | 1.07 | Active | L-R relative activity (male CD rats [2]; 40 mg/kg p.o.): Active; ED50 [4]: 1.62 mg/kg
Fc1ccc(-n2c3c(c4cc(F)ccc42)CN(CCCCc2ccccn2)CC3)cc1 [Example 6, 8-Fluoro-5-(4-fluorophenyl)-2,3,4,5-tetrahydro-2-[4-(2-pyridinyl)butyl]-2H-pyrido[4,3-b]indole] | – | Active | –
Fc1ccc(-n2c3c(c4cc(F)ccc42)CN(CCc2ccncc2)CC3)cc1 [Example 7, 8-Fluoro-5-(4-fluorophenyl)-2,3,4,5-tetrahydro-2-[2-(4-pyridinyl)ethyl]-1H-pyrido[4,3-b]indole] | 12 | Active | –
Fc1ccc(-n2c3c(c4cc(F)ccc42)CN(CCc2cnccn2)CC3)cc1 [Example 8, 8-Fluoro-5-(4-fluorophenyl)-2,3,4,5-tetrahydro-2-[2-(2-pyrazinyl)ethyl]-1H-pyrido[4,3-b]indole] | – | Very Active | L-R relative activity (male CD rats [2]; 20 mg/kg p.o.): Active; ED50 (male CD rats [2]): 15.2 mg/kg
